Measured values from patent publication US8258103B2, “Pesticidal composition” (Sumitomo Chemical Company, Limited, priority 2007, dated 2012).

Legend:
[1] = system: Spodoptera litura; assay: Test Example 1: cabbage leaf immersion test, insecticidal rate on fourth-instar larvae; type: in vivo; conditions: for Found value of insecticidal rate (%): after 2 days
Protocol: (§1) The theoretical value of an insecticidal (ovicidal) rate obtained by using a mixture of 2 kinds of active ingredients was calculated by the following formula: E=X+Y−(X×Y/100), which conforms to the Colby's formula. X: Insecticidal rate (%) of the active ingredient A at M Ppm Y: Insecticidal rate (%) of the active ingredient B at N ppm E: Theoretical insecticidal rate (%) of combination use of the active ingredient A at M ppm and the active ingredient B at N ppm
(§2) When an actual insecticidal (ovicidal) rate exceeds the theoretical value, it is determined that the used two active ingredients produce a synergetic effect.
(1) 12 parts of spinetoram as the present compound 1, 35 parts of a carrier on which a polyoxyethylene alkyl ether sulfate ammonium salt and white carbon in a weight ratio of 1:1 were adsorbed, and 53 parts of water were mixed, and finely milled by a wet milling method to obtain a spinetoram formulation (hereinafter, referred to as the formulation A).
(2) A flowable formulation containing 10 parts of pyridalyl, which is the present compound 2, as the active ingredient (trade name: PLEO flowable, manufactured by Sumitomo Chemical Co., Ltd.) (hereinafter, referred to as the formulation B) was used.
(3) The formulation A was diluted with water to prepare a water dilution having an active ingredient concentration shown in Table 1. To the water dilution, 1/5,000 volume of a spreading agent (Sindain, manufactured by Sumitomo Chemical Takeda Agro Co., Ltd.) was added to prepare a test solution containing the present compound 1. The formulation B was diluted with water to prepare a water dilution having an active ingredient concentration shown in Table 1. To the water dilution, 1/5,000 volume of a spreading agent (Sindain, manufactured by Sumitomo Chemical Takeda Agro Co., Ltd.) was added to prepare a test solution containing the present compound 2.
(§3) A water dilution of the formulation A and a water dilution of the formulation B were mixed so that the respective active ingredients could reach concentrations shown in Table 1. To the mixture, 1/5,000 volume of a spreading agent (Sindain, manufactured by Sumitomo Chemical Takeda Agro Co., Ltd.) was added to prepare a test solution containing the present compound 1 and the present compound 2.
(§4) (4) A cabbage was planted in a pot and grown until the fourth leaf stage. The leaves of the cabbage were cut off one by one, and then immersed in the above-described test solution for 60 seconds. After air drying, the cabbage leaves were each placed in a cup with a filter paper spread on the bottom. Ten fourth-instar larvae of Spodoptera litura were released into each cup. […] An insecticidal rate was calculated and corrected according to the following formula.
Insecticidal rate (%)=100×(Mt−Mc)/(100−Mc)
(§5) Mt: Worm death rate (%) in a section treated with a test compound
(§6) Mc: Worm death rate (%) in a section not treated with a test compound

[2] = system: Spodoptera litura; assay: Test Example 2: cabbage leaf immersion test, insecticidal rate on fourth-instar larvae; type: in vivo; conditions: after 2 days
Protocol: as §1, §2
(1) The formulation A was diluted with water to prepare a water dilution having an active ingredient concentration shown in Table 2. To the water dilution, 1/5,000 volume of a spreading agent (Sindain, manufactured by Sumitomo Chemical Takeda Agro Co., Ltd.) was added to prepare a test solution containing the present compound 1.
The formulation B was diluted with water to prepare a water dilution having an active ingredient concentration shown in Table 2. To the water dilution, 1/5,000 volume of a spreading agent (Sindain, manufactured by Sumitomo Chemical Takeda Agro Co., Ltd.) was added to prepare a test solution containing the present compound 2.
as §3, with “2.” for “1.”
as §4, with “(2)” for “(4)”, “formula. Insecticidal rate (%)=100×(Mt−Mc)/(100−Mc)” for “formula.”
as §5, §6

Compound | Theoretical value of insecticidal rate (%) ([1]; 0.73 ppm single ingredient) | Found value of insecticidal rate (%) ([1]; 0.73 ppm single ingredient) | Theoretical value of insecticidal rate (%) ([1]; 2.9 ppm single ingredient) | Found value of insecticidal rate (%) ([1]; 2.9 ppm single ingredient) | Found value of insecticidal rate (%) ([2]; 0.25 ppm single ingredient) | Found value of insecticidal rate (%) ([2]; 2.5 ppm single ingredient) | Theoretical value of insecticidal rate (%) ([1]; 2.5 ppm single ingredient) | Found value of insecticidal rate (%) ([1]; 2.5 ppm single ingredient)
spinetoram [Spinetoram (present compound 1)] | 0% | 0% | 0% | 0% | 0% | 0% | – | –
FC(F)(F)c1ccc(OCCCOc2c(Cl)cc(OCC=C(Cl)Cl)cc2Cl)nc1 [Pyridalyl (present compound 2), 2,6-dichloro-4-(3,3-dichloroallyloxy)phenyl 3-[5-(trifluoromethyl)-2-pyridyloxy]propyl ether] | – | – | – | – | 0% | 16.7% | 0% | 0%
